The values that follow come from PMC6956362 (ACS Medicinal Chemistry Letters, 2019).

Data set [1] is described as follows: Stability in PBS, RP-HPLC analysis. It counts as physicochemical. To be noted: pH 7.4, 22 °C, up to 48 h.
A further data set deals with CHO-hNTS1R cells. Briefly: Confocal microscopy at live CHO-hNTS1R cells. The data set is classed as cell-based, Chinese hamster. To be noted: for unspecific binding: 22–25 °C, in the presence of 1 (100-fold excess).

With `CC[C@H](C)[C@H](NC(=O)[C@H](Cc1ccc(O)cc1)NC(=O)[C@@H]1CCCN1C(=O)[C@H](CCCNC(=N)N)NC(=O)[C@@H](N)CCCNC(=N)NC(=O)NCCCCNC(=O)CCCCCN1\C(=C/C=C/C=C/C2=[N+](CCCCS(=O)(=O)[O-])c3ccccc3C2(C)C)C(C)(C)c2cc(S(=O)(=O)O)ccc21)C(=O)N[C@@H](CC(C)C)C(=O)O` [compound 6, N-(N-[4-{N-(6-[3,3-Dimethyl-6-sulfonato-2-{5-(3,3-dimethyl-1-[4-sulfonatobutyl]-3H-indol-1-ium-2-yl)penta-2,4-dien-1-ylidene}indolin-1-yl]hexanoyl)amino}butyl]aminocarbonyl)-Arg-Arg-Pro-Tyr-Ile-Leu bis(hydrotrifluoroacetate)], the stability result in data set [1] is on record as “excellent stabilities”. In addition, the unspecific binding result in the data set on CHO-hNTS1R cells is on record as “very low”. `CCNC(=O)CCCCCN1/C(=C/C=C/C=C/C2=[N+](CCCCS(=O)(=O)[O-])c3ccccc3C2(C)C)C(C)(C)c2cc(S(=O)(=O)O)ccc21` [compound 20]: in the data set with CHO-hNTS1R cells (200 nM, 22-25 °C, CHO-hNTS1R cells), the cellular uptake result is “no uptake”.

Take `CC[C@H](C)[C@H](NC(=O)[C@H](Cc1ccc(O)cc1)NC(=O)[C@@H]1CCCN1C(=O)[C@H](CCCNC(=N)N)NC(=O)[C@@H](N)CCCNC(=N)NC(=O)NCCOCCOCCNC(=O)CCCCCN1\C(=C/C=C/C=C/C2=[N+](CCCCS(=O)(=O)[O-])c3ccccc3C2(C)C)C(C)(C)c2ccccc21)C(=O)N[C@@H](CC(C)C)C(=O)O` [compound 11]: the stability entry in data set [1] is recorded as “excellent stabilities”. Moreover, in the data set on CHO-hNTS1R cells, the unspecific binding entry was “very low”. In the case of `CC[C@H](C)[C@H](NC(=O)[C@H](Cc1ccc(O)cc1)NC(=O)[C@@H]1CCCN1C(=O)[C@H](CCCNC(=N)N)NC(=O)[C@@H](N)CCCNC(=N)NC(=O)NCCOCCOCC[n+]1c(C)cc(/C=C/C=C/c2ccc(N(C)C)cc2)cc1C)C(=O)N[C@@H](CC(C)C)C(=O)O` [compound 14], in data set [1], the stability entry is reported as “minor decomposition after incubation times >24 h”. Further, the unspecific binding entry in the data set with CHO-hNTS1R cells is on record as “very low”. Turning to `CC[C@H](C)[C@H](NC(=O)[C@H](Cc1ccc(O)cc1)NC(=O)[C@@H]1CCCN1C(=O)[C@H](CCCNC(=N)NC(=O)NCCOCCOCCNC(=O)CCCCCN1/C(=C/C=C/C=C/C2=[N+](CCCCS(=O)(=O)[O-])c3ccccc3C2(C)C)C(C)(C)c2cc(S(=O)(=O)O)ccc21)NC(=O)[C@@H](N)CCCNC(=N)N)C(=O)N[C@@H](CC(C)C)C(=O)O` [compound 17], the stability result in data set [1] was “excellent stabilities”.
